This note sets out measurements from US12492173B2, “Herbicidal substituted N-tetrazolyl aryl carboxamides” (Bayer Aktiengesellschaft, priority 2019, dated 2025).

Holding throughout (format): in vivo
Assay [1] has as its system Veronica persica. Description: Pre-emergence herbicidal action, VERPE. As to conditions: dosage 320 g/ha; for herbicidal activity VERPE: scored visually after 3 weeks vs untreated controls (100% = plants have died). In outline:
(§1)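 Pre-emergence soil spray over sandy loam-covered seeds; greenhouse 3 weeks; % visual damage (0% = control, 100% = dead).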

Assay [2] deals with Setaria viridis. Briefly: Pre-emergence herbicidal action, SETVI. As to conditions: dosage 320 g/ha, scored visually after 3 weeks vs untreated controls (100% = plants have died). An outline of the steps: as §1
Assay [3] has as its system Abutilon theophrasti. Briefly: Post-emergence herbicidal action, ABUTH. Also noted: key: % herbicidal action vs untreated; 100 = plants died, 0 = like control. In outline: (§2)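 Foliar application at the one-leaf stage of greenhouse-grown plants in sandy loam; compound applied as WP or EC in 600–800 l/ha water containing 0.2% wetting agent. Scores are visual percentages (0% like control, 100% plants died) taken after roughly 3 weeks.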

The test system of assay [4] is Viola tricolor. Briefly: Post-emergence herbicidal action, VIOTR. Also noted: key: % herbicidal action vs untreated; 100 = plants died, 0 = like control. In outline: as §2
In assay [5] the test system is Amaranthus retroflexus. Description: Post-emergence herbicidal action, AMARE. Also noted: key: % herbicidal action vs untreated; 100 = plants died, 0 = like control. An outline of the steps:
as §2

The subject of assay [6] is Echinochloa crus-galli. Briefly: Pre-emergence herbicidal action, ECHCG. As to conditions: dosage 320 g/ha; for herbicidal activity ECHCG: scored visually after 3 weeks vs untreated controls (100% = plants have died). In outline:
as §1

For `Cn1nnnc1NC(=O)c1ccc(C(F)(F)F)c(C[S+](C)[O-])c1Cl` (racemic) [Example 1-297], the “herbicidal activity VERPE” value in assay [1] was 100%. Further, in assay [2], the “herbicidal activity SETVI” value was determined as 100%. For the same molecule, in assay [3] (post-emergence, dosage 80 g/ha), the “herbicidal action ABUTH” value was determined as 80%. For the same molecule, the “herbicidal action VIOTR” value in assay [4] (post-emergence, dosage 80 g/ha) was 100%. Moreover, the “herbicidal action AMARE” value in assay [5] (post-emergence, dosage 80 g/ha) turned out to be 90%. The “herbicidal activity ECHCG” value in assay [6] came to 100%.
As to `Cc1c(C(=O)Nc2nnnn2C)ccc(C(F)(F)F)c1C[S+](C)[O-]` (centres unmarked) [Example 1-84], the “herbicidal activity VERPE” value in assay [1] is listed as 100%. The “herbicidal activity SETVI” value in assay [2] worked out at 100%. Moreover, in assay [3] (post-emergence, dosage 80 g/ha), the “herbicidal action ABUTH” value worked out at 90%. The “herbicidal action VIOTR” value in assay [4] (post-emergence, dosage 80 g/ha) amounted to 100%. Besides, the “herbicidal action AMARE” value in assay [5] (post-emergence, dosage 80 g/ha) amounted to 90%. In addition, the “herbicidal activity ECHCG” value in assay [6] was determined as 100%.
In the case of `Cc1c(C(=O)Nc2nnnn2C)ccc(C(F)(F)F)c1CS(C)(=O)=O` [Example 1-85], the “herbicidal activity VERPE” value in assay [1] was found to be 100%. The “herbicidal activity SETVI” value in assay [2] amounted to 100%. Besides, the “herbicidal action ABUTH” value in assay [3] (Dosage 80 g/ha) is 90. Moreover, in assay [4] (Dosage 80 g/ha), the “herbicidal action VIOTR” value was determined as 100. In addition, the “herbicidal action AMARE” value in assay [5] (Dosage 80 g/ha) is given as 90. The “herbicidal activity ECHCG” value in assay [6] is listed as 100%.
Consider `CCSCc1c(C(F)(F)F)ccc(C(=O)Nc2nnnn2C)c1C` [Example 1-86], for which the “herbicidal activity VERPE” value in assay [1] is recorded as 100%. The “herbicidal activity SETVI” value in assay [2] was 100%. Moreover, in assay [3] (post-emergence, dosage 80 g/ha), the “herbicidal action ABUTH” value amounted to 80%. Moreover, in assay [4] (post-emergence, dosage 80 g/ha), the “herbicidal action VIOTR” value is 100%. Further, in assay [5] (post-emergence, dosage 80 g/ha), the “herbicidal action AMARE” value came out at 80%. Moreover, the “herbicidal activity ECHCG” value in assay [6] worked out at 100%.
`CSCc1c(C(F)F)ccc(C(=O)Nc2nnnn2C)c1C` [Example 1-107, 4-(difluoromethyl)-2-methyl-3-[(methylsulfanyl)methyl]-N-(1-methyl-1H-tetrazol-5-yl)benzamide]: the “herbicidal activity VERPE” value in assay [1] worked out at 100%. Besides, the “herbicidal activity SETVI” value in assay [2] was 100%. Moreover, in assay [3] (Dosage 80 g/ha), the “herbicidal action ABUTH” value was found to be 80. For the same molecule, in assay [4] (Dosage 80 g/ha), the “herbicidal action VIOTR” value is listed as 100. For the same molecule, the “herbicidal action AMARE” value in assay [5] (Dosage 80 g/ha) is 90. The “herbicidal activity ECHCG” value in assay [6] was determined as 100%.
Regarding `Cc1c(C(=O)Nc2nnnn2C)ccc(C(F)F)c1CS(C)(=O)=O` [Example 1-109], the “herbicidal activity VERPE” value in assay [1] amounted to 80%. Further, the “herbicidal activity SETVI” value in assay [2] is on record as 100%. For the same molecule, in assay [3] (Dosage 80 g/ha), the “herbicidal action ABUTH” value is on record as 90. Moreover, the “herbicidal action VIOTR” value in assay [4] (Dosage 80 g/ha) is given as 100. The “herbicidal action AMARE” value in assay [5] (Dosage 80 g/ha) worked out at 100. The “Herbicidal action against AMARE” value in assay [5] (comparative experiment, post-emergence, 5 g of a.i./ha) came to 100. In assay [6], the “herbicidal activity ECHCG” value is listed as 90%.
On to `Cc1ccc(C(=O)Nc2nnnn2C)c(Cl)c1CS(C)(=O)=O` [Example 1-289], for which the “herbicidal activity VERPE” value in assay [1] stood at 100%. Further, in assay [2], the “herbicidal activity SETVI” value worked out at 90%. The “herbicidal action VIOTR” value in assay [4] (Dosage 80 g/ha) amounted to 100. Also, the “herbicidal action AMARE” value in assay [5] (Dosage 80 g/ha) is 100. In addition, the “herbicidal activity ECHCG” value in assay [6] is given as 90%.
`CCn1nnnc1NC(=O)c1ccc(S(C)(=O)=O)c(CS(C)(=O)=O)c1C` [Example 2-39]: the “herbicidal action VERPE” value in assay [1] is listed as 100%. Besides, the “herbicidal action ABUTH” value in assay [3] (Dosage 80 g/ha) was determined as 90. For the same molecule, the “herbicidal action VIOTR” value in assay [4] (Dosage 80 g/ha) is reported as 100. For the same molecule, the “herbicidal action AMARE” value in assay [5] (Dosage 80 g/ha) amounted to 100. In assay [6], the “herbicidal action ECHCG” value was found to be 90%.
Regarding `CCCn1nnnc1NC(=O)c1ccc(C(F)F)c(C[S+]([O-])CC)c1Cl` (centres unmarked) [Example 3-324], the “herbicidal activity SETVI” value in assay [2] worked out at 100%. Moreover, the “herbicidal action ABUTH” value in assay [3] (Dosage 80 g/ha) was 100. Further, the “herbicidal action VIOTR” value in assay [4] (Dosage 80 g/ha) was determined as 100. Also, the “herbicidal activity ECHCG” value in assay [6] is 100%.
`CCCn1nnnc1NC(=O)c1ccc(C(F)(F)F)c(CSC)c1Br` [Example 3-380]: in assay [1], the “herbicidal activity VERPE” value turned out to be 90%. For the same molecule, in assay [2], the “herbicidal activity SETVI” value is 100%. Moreover, in assay [3] (Dosage 80 g/ha), the “herbicidal action ABUTH” value stood at 80. Also, the “herbicidal action VIOTR” value in assay [4] (Dosage 80 g/ha) was found to be 100. In addition, in assay [6], the “herbicidal activity ECHCG” value is 100%.
